Reference: patent US20120122860A1, “SOLID FORMS OF SULFONAMIDES AND AMINO ACIDS” (Plexxikon, Inc., priority 2009, published 2012)

What was measured:
Src = Src (Homo sapiens, UniProt P12931); assay: Kinase activity assay, Src
Fms = Fms (Homo sapiens, UniProt P07333); assay: Kinase activity assay, Fms
Kdr = Kdr (Homo sapiens, UniProt P35968); assay: Kinase activity assay, Kdr
Kit = Kit (Homo sapiens, UniProt P10721); assay: Kinase activity assay, Kit
B-Raf = B-Raf (Homo sapiens, UniProt P15056); assay: Kinase activity assay, B-Raf; assay type: biochemical; conditions: read-out: activity toward kinase B-Raf, IC50
C-Raf = C-Raf (Homo sapiens, UniProt P04049); assay: Kinase activity assay, C-Raf
B-Raf V600E = B-Raf V600E (Homo sapiens, UniProt P15056, V600E); assay: Kinase activity assay, B-Raf V600E; assay type: biochemical; conditions: read-out: activity toward kinase B-Raf V600E, IC50

Measured: IC50

B-Raf, sequence (P15056 whole entry): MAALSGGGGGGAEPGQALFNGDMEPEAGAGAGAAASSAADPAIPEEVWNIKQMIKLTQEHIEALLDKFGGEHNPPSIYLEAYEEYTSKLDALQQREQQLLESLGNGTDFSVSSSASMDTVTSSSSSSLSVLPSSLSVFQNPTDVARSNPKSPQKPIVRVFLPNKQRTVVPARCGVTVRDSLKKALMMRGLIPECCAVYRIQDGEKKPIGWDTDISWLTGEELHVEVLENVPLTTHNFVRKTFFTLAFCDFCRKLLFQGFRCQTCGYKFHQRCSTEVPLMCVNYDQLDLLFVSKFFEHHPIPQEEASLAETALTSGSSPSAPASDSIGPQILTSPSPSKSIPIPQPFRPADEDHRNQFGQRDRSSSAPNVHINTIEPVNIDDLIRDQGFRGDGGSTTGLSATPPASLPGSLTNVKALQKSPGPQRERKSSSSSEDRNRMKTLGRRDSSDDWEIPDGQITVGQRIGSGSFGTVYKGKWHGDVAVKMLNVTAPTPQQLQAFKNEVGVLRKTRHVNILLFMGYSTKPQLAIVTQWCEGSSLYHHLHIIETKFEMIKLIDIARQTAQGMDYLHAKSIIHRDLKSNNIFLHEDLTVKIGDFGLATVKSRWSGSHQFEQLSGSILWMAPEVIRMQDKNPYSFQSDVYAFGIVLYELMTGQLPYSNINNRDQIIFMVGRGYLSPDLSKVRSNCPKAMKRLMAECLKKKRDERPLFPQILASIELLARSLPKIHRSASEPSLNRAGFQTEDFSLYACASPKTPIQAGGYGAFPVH
B-Raf V600E, sequence (P15056 whole entry V600E): as the sequence (P15056 whole entry) above, with V600E counted along it
Fms, sequence (P07333 20-972): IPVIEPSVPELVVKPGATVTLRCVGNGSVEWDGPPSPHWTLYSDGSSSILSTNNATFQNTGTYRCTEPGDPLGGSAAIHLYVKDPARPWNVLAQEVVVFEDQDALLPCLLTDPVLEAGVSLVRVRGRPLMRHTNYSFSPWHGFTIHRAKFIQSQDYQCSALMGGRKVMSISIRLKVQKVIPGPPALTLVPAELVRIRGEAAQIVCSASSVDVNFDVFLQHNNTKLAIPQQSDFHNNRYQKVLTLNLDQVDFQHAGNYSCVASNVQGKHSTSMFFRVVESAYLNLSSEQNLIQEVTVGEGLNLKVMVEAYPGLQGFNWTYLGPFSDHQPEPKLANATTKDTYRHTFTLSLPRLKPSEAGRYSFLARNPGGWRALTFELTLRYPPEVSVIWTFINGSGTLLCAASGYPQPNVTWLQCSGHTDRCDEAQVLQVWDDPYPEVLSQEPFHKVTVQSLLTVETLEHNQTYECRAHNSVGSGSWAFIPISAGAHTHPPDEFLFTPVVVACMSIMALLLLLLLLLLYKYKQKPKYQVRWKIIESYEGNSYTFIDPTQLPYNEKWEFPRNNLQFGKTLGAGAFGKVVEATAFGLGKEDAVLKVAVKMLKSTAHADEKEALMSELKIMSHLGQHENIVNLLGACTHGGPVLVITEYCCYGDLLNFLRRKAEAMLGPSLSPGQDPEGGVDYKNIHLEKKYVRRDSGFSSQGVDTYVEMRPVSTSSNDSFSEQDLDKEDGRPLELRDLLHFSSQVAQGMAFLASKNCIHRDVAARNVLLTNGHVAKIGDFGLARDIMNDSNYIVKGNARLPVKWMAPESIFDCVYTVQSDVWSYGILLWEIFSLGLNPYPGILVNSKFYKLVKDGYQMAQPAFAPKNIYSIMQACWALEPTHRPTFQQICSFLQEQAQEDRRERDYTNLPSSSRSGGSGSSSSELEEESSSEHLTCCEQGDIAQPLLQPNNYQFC
C-Raf, sequence (P04049 whole entry): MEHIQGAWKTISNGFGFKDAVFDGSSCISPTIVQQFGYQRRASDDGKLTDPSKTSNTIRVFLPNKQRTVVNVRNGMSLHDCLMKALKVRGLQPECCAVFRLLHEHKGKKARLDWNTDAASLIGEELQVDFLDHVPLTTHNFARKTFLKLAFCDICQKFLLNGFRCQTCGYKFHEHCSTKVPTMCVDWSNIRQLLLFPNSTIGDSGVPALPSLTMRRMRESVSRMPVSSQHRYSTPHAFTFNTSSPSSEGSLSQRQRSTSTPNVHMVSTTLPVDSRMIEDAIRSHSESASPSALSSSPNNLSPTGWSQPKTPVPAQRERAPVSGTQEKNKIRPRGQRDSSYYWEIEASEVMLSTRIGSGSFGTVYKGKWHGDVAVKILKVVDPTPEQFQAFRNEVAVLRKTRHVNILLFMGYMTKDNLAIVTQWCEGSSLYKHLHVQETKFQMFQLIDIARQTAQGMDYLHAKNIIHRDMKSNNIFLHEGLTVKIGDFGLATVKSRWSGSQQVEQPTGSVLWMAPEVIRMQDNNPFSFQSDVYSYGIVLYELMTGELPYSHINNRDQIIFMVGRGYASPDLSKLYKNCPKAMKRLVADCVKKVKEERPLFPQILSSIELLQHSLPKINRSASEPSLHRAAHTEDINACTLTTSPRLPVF
Src, sequence (P12931 whole entry): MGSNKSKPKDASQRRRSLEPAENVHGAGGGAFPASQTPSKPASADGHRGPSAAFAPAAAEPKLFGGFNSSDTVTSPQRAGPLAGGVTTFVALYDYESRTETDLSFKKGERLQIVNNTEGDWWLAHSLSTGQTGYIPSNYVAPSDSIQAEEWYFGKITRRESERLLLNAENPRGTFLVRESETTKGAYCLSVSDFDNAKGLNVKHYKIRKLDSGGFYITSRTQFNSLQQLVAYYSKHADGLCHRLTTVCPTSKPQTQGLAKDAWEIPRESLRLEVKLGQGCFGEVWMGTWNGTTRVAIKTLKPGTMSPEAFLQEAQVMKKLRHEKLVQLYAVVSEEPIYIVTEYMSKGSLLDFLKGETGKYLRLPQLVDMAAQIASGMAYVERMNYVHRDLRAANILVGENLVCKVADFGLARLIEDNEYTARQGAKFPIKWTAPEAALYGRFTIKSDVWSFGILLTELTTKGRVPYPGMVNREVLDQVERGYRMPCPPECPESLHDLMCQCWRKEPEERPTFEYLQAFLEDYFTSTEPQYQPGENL
Kit, sequence (P10721 26-976): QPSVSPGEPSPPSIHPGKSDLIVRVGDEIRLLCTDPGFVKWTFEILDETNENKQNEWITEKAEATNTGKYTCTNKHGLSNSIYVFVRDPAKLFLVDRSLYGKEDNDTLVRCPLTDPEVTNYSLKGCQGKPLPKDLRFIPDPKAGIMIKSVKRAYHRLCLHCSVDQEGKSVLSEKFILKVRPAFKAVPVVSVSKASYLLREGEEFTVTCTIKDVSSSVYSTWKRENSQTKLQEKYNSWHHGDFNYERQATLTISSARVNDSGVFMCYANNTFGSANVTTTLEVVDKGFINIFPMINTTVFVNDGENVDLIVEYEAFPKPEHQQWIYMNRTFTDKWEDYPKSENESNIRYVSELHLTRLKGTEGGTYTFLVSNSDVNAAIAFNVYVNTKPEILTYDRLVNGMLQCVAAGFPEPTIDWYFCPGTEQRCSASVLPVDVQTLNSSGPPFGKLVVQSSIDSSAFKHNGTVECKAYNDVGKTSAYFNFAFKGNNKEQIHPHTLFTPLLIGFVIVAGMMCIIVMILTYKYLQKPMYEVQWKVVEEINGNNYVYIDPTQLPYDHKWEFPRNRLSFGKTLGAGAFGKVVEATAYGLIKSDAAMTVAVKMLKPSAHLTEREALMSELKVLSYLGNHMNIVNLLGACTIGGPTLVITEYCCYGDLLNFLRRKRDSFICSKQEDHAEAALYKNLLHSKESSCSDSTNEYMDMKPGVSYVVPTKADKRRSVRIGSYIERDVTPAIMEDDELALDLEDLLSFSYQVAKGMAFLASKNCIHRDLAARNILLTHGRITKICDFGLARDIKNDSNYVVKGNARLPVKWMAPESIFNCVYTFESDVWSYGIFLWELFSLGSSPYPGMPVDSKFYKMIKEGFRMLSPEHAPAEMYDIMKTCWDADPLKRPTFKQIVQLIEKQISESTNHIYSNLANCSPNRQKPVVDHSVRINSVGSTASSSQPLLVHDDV

CN1CCOc2cc(S(=O)(=O)Nc3ccc(F)c(C(=O)c4c[nH]c5ncc(Cl)cc45)c3F)ccc21 [P-2001, 4-Methyl-3,4-dihydro-2H-benzo[1,4]oxazine-7-sulfonic acid [3-(5-chloro-1H-pyrrolo[2,3-b]pyridine-3-carbonyl)-2,4-difluoro-phenyl]-amide]
not listed: B-Raf V600E
≤ 10 µM: all other assays above

O=C(c1c(F)ccc(NS(=O)(=O)c2ccc3c(c2)CCO3)c1F)c1c[nH]c2ncc(Cl)cc12 [P-2007, 2,3-Dihydro-benzofuran-5-sulfonic acid [3-(5-chloro-1H-pyrrolo[2,3-b]pyridine-3-carbonyl)-2,4-difluoro-phenyl]-amide]
not listed: Kdr
≤ 10 µM: all other assays above

Cc1oncc1S(=O)(=O)Nc1cccc(C(=O)c2c[nH]c3ncc(C#N)cc23)c1F [P-2088, 5-Methyl-isoxazole-4-sulfonic acid [3-(5-cyano-1H-pyrrolo[2,3-b]pyridine-3-carbonyl)-2-fluoro-phenyl]-amide]
not listed: Src | B-Raf
≤ 10 µM: all other assays above

Cn1cc(-c2cnc3[nH]cc(C(=O)c4cc(NS(=O)(=O)c5ccc(C(F)(F)F)cc5)ccc4F)c3c2)cn1 [P-2104, N-{4-Fluoro-3-[5-(1-methyl-1H-pyrazol-4-yl)-1H-pyrrolo[2,3-b]pyridine-3-carbonyl]-phenyl}-4-trifluoromethyl-benzenesulfonamide]
not listed: C-Raf
≤ 10 µM: all other assays above

CCCS(=O)(=O)Nc1ccc(F)c(C(=O)c2c[nH]c3ncc(-c4ncc(C)n4C)cc23)c1F [P-2152, Propane-1-sulfonic acid {3-[5-(1,5-dimethyl-1H-imidazol-2-yl)-1H-pyrrolo[2,3-b]pyridine-3-carbonyl]-2,4-difluoro-phenyl}-amide]
not listed: Src | C-Raf
≤ 10 µM: all other assays above

CCCS(=O)(=O)Nc1ccc(F)c(C(=O)c2c[nH]c3ncc(-c4nccn4C)cc23)c1F [P-2153, Propane-1-sulfonic acid {2,4-difluoro-3-[5-(1-methyl-1H-imidazol-2-yl)-1H-pyrrolo[2,3-b]pyridine-3-carbonyl]-phenyl}-amide]
not listed: C-Raf
≤ 10 µM: all other assays above

CCCS(=O)(=O)Nc1ccc(F)c(C(=O)c2c[nH]c3ncc(-c4cccnc4F)cc23)c1F [P-2164, Propane-1-sulfonic acid {2,4-difluoro-3-[5-(2-fluoro-pyridin-3-yl)-1H-pyrrolo[2,3-b]pyridine-3-carbonyl]-phenyl}-amide]
not listed: B-Raf | C-Raf
≤ 10 µM: all other assays above

CCCS(=O)(=O)Nc1ccc(F)c(C(=O)c2c[nH]c3ncc(-c4cccc(NS(C)(=O)=O)c4)cc23)c1F [P-2169, Propane-1-sulfonic acid {2,4-difluoro-3-[5-(3-methanesulfonylamino-phenyl)-1H-pyrrolo[2,3-b]pyridine-3-carbonyl]-phenyl}-amide]
not listed: B-Raf | C-Raf
≤ 10 µM: all other assays above

CCCS(=O)(=O)Nc1ccc(F)c(C(=O)c2c[nH]c3ncc(-c4ccc(C)nc4F)cc23)c1F [P-2172, Propane-1-sulfonic acid {2,4-difluoro-3-[5-(2-fluoro-6-methyl-pyridin-3-yl)-1H-pyrrolo[2,3-b]pyridine-3-carbonyl]-phenyl}-amide]
not listed: C-Raf
≤ 10 µM: all other assays above

CCCS(=O)(=O)Nc1ccc(F)c(C(=O)c2c[nH]c3ncc(-c4ccnn4C)cc23)c1F [P-2175, Propane-1-sulfonic acid {2,4-difluoro-3-[5-(2-methyl-2H-pyrazol-3-yl)-1H-pyrrolo[2,3-b]pyridine-3-carbonyl]-phenyl}-amide]
not listed: C-Raf
≤ 10 µM: all other assays above

CCCS(=O)(=O)Nc1ccc(F)c(C(=O)c2c[nH]c3ncc(-c4ccc(C(=O)NC)nc4)cc23)c1F [P-2180, 5-{3-[2,6-Difluoro-3-(propane-1-sulfonylamino)-benzoyl]-1H-pyrrolo[2,3-b]pyridin-5-yl}-pyridine-2-carboxylic acid methylamide]
not listed: C-Raf
≤ 10 µM: all other assays above

CCCS(=O)(=O)Nc1ccc(F)c(C(=O)c2c[nH]c3ncc(-c4ccc(C(=O)NC5CC5)nc4)cc23)c1F [P-2181, 5-{3-[2,6-Difluoro-3-(propane-1-sulfonylamino)-benzoyl]-1H-pyrrolo[2,3-b]pyridin-5-yl}-pyridine-2-carboxylic acid cyclopropylamide]
not listed: C-Raf
≤ 10 µM: all other assays above

CCCS(=O)(=O)Nc1ccc(F)c(C(=O)c2c[nH]c3ncc(-c4ccc(S(C)(=O)=O)cc4)cc23)c1F [P-2183, Propane-1-sulfonic acid {2,4-difluoro-3-[5-(4-methanesulfonyl-phenyl)-1H-pyrrolo[2,3-b]pyridine-3-carbonyl]-phenyl}-amide]
not listed: Src | C-Raf
≤ 10 µM: all other assays above

CCCS(=O)(=O)Nc1ccc(F)c(C(=O)c2c[nH]c3ncc(-c4ccc(SC)nc4)cc23)c1F [P-2187]
not listed: C-Raf
≤ 10 µM: all other assays above

CCCS(=O)(=O)Nc1ccc(F)c(C(=O)c2c[nH]c3ncc(-c4ccnc(F)c4)cc23)c1F [P-2192, Propane-1-sulfonic acid {2,4-difluoro-3-[5-(2-fluoro-pyridin-4-yl)-1H-pyrrolo[2,3-b]pyridine-3-carbonyl]-phenyl}-amide]
not listed: C-Raf
≤ 10 µM: all other assays above

CCCS(=O)(=O)Nc1ccc(F)c(C(=O)c2c[nH]c3ncc(O)cc23)c1F [P-2204, Propane-1-sulfonic acid [2,4-difluoro-3-(5-hydroxy-1H-pyrrolo[2,3-b]pyridine-3-carbonyl)-phenyl]-amide]
not listed: C-Raf
≤ 10 µM: all other assays above

CCS(=O)(=O)Nc1ccc(F)c(C(=O)c2c[nH]c3ncc(Br)cc23)c1F [P-2268, Ethanesulfonic acid [3-(5-bromo-1H-pyrrolo[2,3-b]pyridine-3-carbonyl)-2,4-difluoro-phenyl]-amide]
not listed: C-Raf
≤ 10 µM: all other assays above

CC(C)CS(=O)(=O)Nc1ccc(F)c(C(=O)c2c[nH]c3ncc(Br)cc23)c1F [P-2296, 2-Methyl-propane-1-sulfonic acid [3-(5-bromo-1H-pyrrolo[2,3-b]pyridine-3-carbonyl)-2,4-difluoro-phenyl]-amide]
not listed: B-Raf | C-Raf
≤ 10 µM: all other assays above

CC(C)CS(=O)(=O)Nc1ccc(F)c(C(=O)c2c[nH]c3ncc(-c4ccc(F)cc4)cc23)c1F [P-2298, 2-Methyl-propane-1-sulfonic acid {2,4-difluoro-3-[5-(4-fluoro-phenyl)-1H-pyrrolo[2,3-b]pyridine-3-carbonyl]-phenyl}-amide]
not listed: C-Raf
≤ 10 µM: all other assays above

O=C(c1c(F)ccc(NS(=O)(=O)CCC(F)(F)F)c1F)c1c[nH]c2ncc(-c3ccc(F)cc3)cc12 [P-2326, 3,3,3-Trifluoro-propane-1-sulfonic acid {2,4-difluoro-3-[5-(4-fluoro-phenyl)-1H-pyrrolo[2,3-b]pyridine-3-carbonyl]-phenyl}-amide]
not listed: C-Raf
≤ 10 µM: all other assays above

O=C(c1c(F)ccc(NS(=O)(=O)CC(F)(F)F)c1F)c1c[nH]c2ncc(Br)cc12 [P-2334, 2,2,2-Trifluoro-ethanesulfonic acid [3-(5-bromo-1H-pyrrolo[2,3-b]pyridine-3-carbonyl)-2,4-difluoro-phenyl]-amide]
not listed: C-Raf
≤ 10 µM: all other assays above

CCCS(=O)(=O)Nc1cccc(C(=O)c2c[nH]c3ncc(C(=O)OCC)cc23)c1F [P-2406, 3-[2-Fluoro-3-(propane-1-sulfonylamino)-benzoyl]-1H-pyrrolo[2,3-b]pyridine-5-carboxylic acid ethyl ester]
not listed: Src | C-Raf
≤ 10 µM: all other assays above
